Series [1] deals with Escherichia coli SOL RL 90. In words: in vitro bacteriostatic action, solid medium, dilutions method. Type of series: cell-based. The note with it: SOLRL90, producing lactamases, read-out: minimum inhibitor concentration (MIC). On the procedure:
(§1) The in vitro bacteriostatic action was determined in a solid medium by the dilutions method. The study was directed to Gram^+ and Gram^- strains of which several are known for producing β lactamases.
(§2) The results are expressed in the minimum inhibitor concentrations (MIC--μg/ml).

The subject of series [2] is Klebsiella pneumoniae RO 30. The series is described as above. As to conditions: RO30, producing lactamases, read-out: minimum inhibitor concentration (MIC). Format: cell-based. On the procedure: as §1, §2
A further series has as its system Escherichia coli A 223. The description is as above. Type of series: cell-based. As to conditions: A223, not producing lactamases, read-out: minimum inhibitor concentration (MIC). On the procedure: as §1, §2
Series [3] has as its system Staphylococcus aureus Smith. The series is described as above. Type of series: cell-based. The note with it: not producing lactamases, read-out: minimum inhibitor concentration (MIC). As for the experimental part:
as §1, §2

For series [4], the system named is Klebsiella pneumoniae IP E 55. The series is described as above. Format: cell-based. As to conditions: IPE55, not producing lactamases, read-out: minimum inhibitor concentration (MIC). On the procedure:
as §1, §2

The test system of series [5] is Escherichia coli R 69/2 TEM. The description is as above. The note with it: R69/2TEM, read-out: minimum inhibitor concentration (MIC). Format: cell-based. As for the experimental part:
as §1, §2

For series [6], the system named is Escherichia coli SOL RL 90. In words: therapeutic efficacy in septicaemia provoked in the mouse by Escherichia coli SOL RL 90. Format: in vivo. As to conditions: SOLRL90, sc, 96 h, read-out: DE 50 (median effective dose, ED 50). As for the experimental part: The therapeutic efficacy of the products is determined in the septicaemic model of the mouse.
Septicaemia is provoked by intraperitoneal inoculation of 0.5 ml of an appropriate dilution of suspension of the strain E.coli Sol. RL 90 producing cephalosporinase.
The products are administered in solution in a phosphate buffer pH 7.0 in a volume of 0.2 ml by the sub-cutaneous route and at a rate of 5 doses (mg of product per kg of live weight of mouse) to batches of 10 mice 1 hour and 5 hours after inoculation of the germ.
After 4 days of observation during which the mortality is noted, the median effective doses (ED 50) are calculated by the Muench and Reed method.

Series [7] in a line: solubility in a buffer solution. Type of series: physicochemical. As to conditions: pH 7, aqueous buffer; buffer solution having a pH of 7. An excerpt: The pharmaceutical compositions are made from compounds (I) in their acid form or, when their solubility is insufficient, in the form of a salt.

Molecules are shown by their SMILES. Values after ≈ are worked out from the molar mass of the structure shown. Counter-ions that a name gives are not always drawn. Like-named read-outs stand apart in the source and are kept apart here. Bounds are passed on as bounds.

For `CO/N=C(\C(=O)NC1C(=O)N2C(C(=O)O)=C(CSC(=O)c3ccco3)CSC12)c1csc(N)n1` (stereo not drawn) [31 916, Syn isomer [(amino-2 thiazolyl-4)-2 methoxyimino-2 acetamido]-7 (furyl-2 carbonylthiomethyl)-3 cepheme-3 4-carboxylic acid], the MIC in series [1] was determined as 2 µg/mL (≈ 3.82 µM); in series [2], 8 µg/mL (≈ 15.3 µM); in the series with Escherichia coli A 223 it was 0.5 µg/mL (≈ 0.955 µM); in series [3], 0.25 µg/mL (≈ 0.477 µM); in series [4] it was 1 µg/mL (≈ 1.91 µM); in series [5], 0.25 µg/mL (≈ 0.477 µM). Further, the ED50 in series [6] (mouse septicaemia, sub-cutaneous, 1 hour and 5 hours after inoculation, 4 days of observation, Muench and Reed method) is 5.4 mg/kg.

For the compound `CO/N=C(\C(=O)NC1C(=O)N2C(C(=O)O)=C(CSC(=O)c3cccs3)CSC12)c1csc(N)n1` (stereo not drawn) [31 917, syn isomer [(amino-2 thiazolyl-4)-2 methoxyimino-2 acetamido]-7 (thienyl-2 carbonylthiomethyl)-3 cepheme-3 4-carboxylic acid], the MIC in series [1] was 2 µg/mL (≈ 3.71 µM); in series [2], 8 µg/mL (≈ 14.8 µM); with Escherichia coli A 223, 0.5 µg/mL (≈ 0.927 µM); in series [3] it was 0.25 µg/mL (≈ 0.463 µM); in series [4], 1 µg/mL (≈ 1.85 µM); in series [5], 0.5 µg/mL (≈ 0.927 µM). Besides, the ED50 in series [6] came out at 3.6 mg/kg.

`CO/N=C(\C(=O)NC1C(=O)N2C(C(=O)O)=C(CSC(=O)c3ccco3)CSC12)c1csc(N)n1` (stereo not drawn) [sodium salt of compound CM 31916]: the solubility in series [7] was above 200 mg/mL.

The record behind these values is patent US4464367A, “Cephalosporin derivatives, process for preparation thereof and drugs containing said derivatives usable as antibiotics” (Sanofi, priority 1980, dated 1984).
